Like-named read-outs stand apart in the source and are kept apart here.
Assays:
[1] = Second sacrificial agent testing protocol: paste air measurements with DDBS (0.0125 wt %) and rating; details: for B1 + 0.0125% DDBS + 0.1% SA (air entrainment) / B1 + 0.0125% DDBS + 0.05% SA (air entrainment): B1 FA/cement paste; for PCA + 0.1% SA (level of air entrainment by the candidate sacrificial agent): Portland cement paste (PCA); for SA Rating (0-4): sacrificial agent overall rating index; for Overall performance rating (second protocol rating): key: 0: Fail; 1: Poor; 2: Good; 3: Preferred; 4: Most preferred; for SA Rating (0-4): key: 0: Fail; 1: Poor; 2: Good; 3: Preferred; 4: Most preferred
How it was run: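 Air entrainment was measured in cement pastes of fixed composition and fluidity. The candidate agent was tested alone at 0.1 wt % in a cement-only paste. It was also tested at 0.05 and 0.1 wt % in a fly ash (B1)-cement paste with DDBS, where air recovery was calculated against the same paste without agent.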

[2] = Paste air entrainment, Maximum air protocol; details: Air 30 (0.0125 wt %)/ND/X=1/4/4, X = the labelled SA; for Average of air entrained at 66 min: over the fly ash:PCA pastes of Table 9
Method: Preparation of pastes: Pastes were prepared by pouring 400 g of cementitious powder in the 350-400 g of solution (water and additives) in a vessel (8.4 cm dia,×14.5 cm height) while gently stirring with a spatula; the exact quantity of water depends on the selected W/B ratio (see below); rapid hand mixing was continued for 1 minute, followed by intense stirring at 25° C. during 2 min using a hand-held mixer (BRAUN model MR400). The level of air entrained is dependent on the mode of utilisation of the mixer, namely the height of the mixer from the bottom of the vessel and the length of the mixing stroke; the following protocols were adopted.
Fluidity measurements: For all air entrainment measurements, the initial fluidity of the paste (without additives) was controlled using the ‘mini-slump’ procedure widely used for paste and grouts. In this protocol, a portion of the paste was transferred into the min-slump cone (a 2¼″ high, 1½″ bottom diameter, ¾″ top diameter cone); excess paste was skimmed-off with a straight; the cone was then raised and the spread diameter of the paste was recorded (average of two measurements). The fluidity is measured at 10 minutes after mixing. The paste is returned to the batch and reserved for subsequent AE measurements. The fluidity of the paste (without SA and AEA) is adjusted by changing the amount of water (water/cementitious ratio) which yields a spread diameter of 115±5 mm. The latter is monitored regularly.
Air entrainment measurements: For air entrainment measurements, a portion of the paste was transferred to overfill a Plexiglas cylinder (3¾ inches height, 2 inches interior diameter), which was then levelled flush to the top of the cylinder with a straight edge. The mass of the filled cylinder, minus the weight of the empty cylinder, is then recorded and used to calculate the amount of air according to the following formula: […]
This procedure was carried out at three times at 30 min. intervals (6, 36 and 66 min); the paste was let to stand at rest between measurements, and was stirred gently by hand for one minute prior to the subsequent air entrainment measurements.
Other combinations of air entrainment agents and sacrificial agents were prepared as stock solutions following the procedure outlined above, adjusting the weights of the various components to achieve the desired component ratios.

[3] = Precipitation in slurry extract or leachate; type: physicochemical; details: pH 12.5, entries in parentheses
Method: (§1) The pH of the solutions were adjusted to 12.5 with NaOH.
Precipitation in slurry extract or leachate: To perform this test, FA or cement leachate were prepared in advance, by filtering two liters of a 10 wt % FA, or cement, slurry in 0.03N NaOH which had been left to stand under slow agitation for 30 min; 2.5 g of the filtrate solution was mixed with 22.5 g of the SA or AEA solution in a 50 ml polypropylene centrifuge tube; the latter was shaken vigorously in an orbital shaker (Eberbach Corporation) for 30 min at room temperature, centrifuged for 5 min and then the supernatant solution was filtered (0.45 μm). The SA or AEA content of the solution was determined using an Ultraviolet-Visible (UV) spectrometer or by COD (Chemical Oxygen Demand) measurement.
Entries in parentheses: % precipitation when reacted with solutions extracted from the fly ash slurries (Results in Table 5).

[4] = Adsorption/precipitation of SA or AEA in 10 wt % aqueous fly ash or cement slurries at pH 12.5; type: physicochemical; details: initial SA 3 mM
Method: Adsorption/Precipitation of Sacrificial Agents (SA) or Air Entrainment Agents (AEA) in 10 wt % Aqueous Fly Ash Slurries at pH 12.5:
as §1
Adsorption/Precipitation in FA or Cement Slurries: In this protocol, aqueous slurries containing 10 wt % FA or cement were prepared as described above, except that in this case, the cement was added directly into a solution of the SA or AEA in the following proportions: 3.0 g cement or FA, and 27 g of 3 mM sacrificial agent, or 27 g of 1050 mg/l AEA; the latter were prepared in the same way as in the precipitation test above. The residual (soluble) SA or AEA content in the solution was also determined by UV or COD.

[5] = 50:50 fly ash B1 (LOI 4.36%):PCA paste
[6] = 50:50 fly ash C1 (LOI 1.62%):PCA paste
[7] = 50:50 fly ash D (LOI […]):PCA paste
[8] = 50:50 fly ash M1 (LOI […]):PCA paste
[9] = 50:50 fly ash M2 (LOI 5.34%):PCA paste
[10] = 50:50 fly ash M3 (LOI 11.33%):PCA paste
[11] = 50:50 fly ash R (LOI […]):PCA paste
[12] = sum of ratings of air entrainment recovery by 0.05% and 0.1% SA, DDBS 0.0125 wt %, 50:50 B1 fly ash:cement paste

Compound | Overall performance rating (second protocol rating) [1] | B1 + 0.0125% DDBS + 0.1% SA (air entrainment) ([1]; […]) | PCA + 0.1% SA (level of air entrainment by the candidate sacrificial agent) ([1]; […]) | SA Rating (0-4) [1] | Air entrained at 66 min [2, 5] [vol %] | Air entrained at 66 min [2, 6] [vol %] | Air entrained at 66 min [2, 7] [vol %] | Air entrained at 66 min [2, 8] [vol %] | Air entrained at 66 min [2, 9] [vol %] | Air entrained at 66 min [2, 10] [vol %] | Air entrained at 66 min [2, 11] [vol %] | Air entrained at 66 min ([2]; PCA paste, no fly ash) [vol %] | Average of air entrained at 66 min [2] [%] | Overall performance rating (second protocol rating) [1, 12] | also measured
OCC(O)CO [Glycerol] | 2 | 2.3 | 0.1 | 2 | 12 | 18 | 18 | 16 | 7 | 11 | 18 | 16 | 14 | – | –
CCCCOCCOCCO [Di-EGBE, Di-ethylene glycol butyl ether] | 4 | 11.2 | 2.7 | 4 | 16 | 21 | 24 | 21 | 11 | 17 | 22 | 22 | 19 | – | B1 + 0.0125% DDBS + 0.05% SA (air entrainment) ([1]; […]): 9.9
Polyethylene glycol (Molecular weight = 200) [PEG 200] | – | – | – | – | 14 | – | 20 | 19 | 9 | – | 18 | 18 | 16 | 3 | –
COC(C)COC(C)CO (stereo not drawn) [Di-PGME, Di-propylene glycol methyl ether] | – | – | 1.1 | 4 | 16 | 21 | 25 | 20 | 11 | 15 | 20 | 23 | 18 | 4 | B1 + 0.0125% DDBS + 0.05% SA (air entrainment) ([1]; 0.0125 wt % DDBS, 0.05 wt % SA): 8.7; B1 + 0.0125% DDBS + 0.1% SA (air entrainment) ([1]; 0.0125 wt % DDBS, 0.10 wt % SA): 9.7
NCc1ccccc1 [BA, Benzylamine] | – | – | – | – | – | – | – | – | – | – | – | – | – | – | Precipitation (wt % precipitated) ([3]; solution extracted from 10 wt % fly ash B1 (LOI 4.36%) slurry): 12 wt %; Precipitation (wt % precipitated) ([3]; solution extracted from 10 wt % fly ash C1, class C (LOI 1.62%) slurry): 11 wt %; Precipitation (wt % precipitated) ([3]; solution extracted from 10 wt % fly ash C2 (LOI 3.32%) slurry): 14 wt %; Precipitation (wt % precipitated) ([3]; solution extracted from 10 wt % fly ash M1 (LOI […]) slurry): 11 wt %; Precipitation (wt % precipitated) ([3]; solution extracted from 10 wt % fly ash M2 (LOI 5.34%) slurry): 15 wt %; Precipitation (wt % precipitated) ([3]; solution extracted from 10 wt % fly ash M3 (LOI 11.33%) slurry): 13 wt %; Precipitation (wt % precipitated) ([3]; solution extracted from 10 wt % fly ash N (LOI 0.30%) slurry): 11 wt %; Adsorption (wt % Adsorbed) ([4]; 10 wt % fly ash B1 (LOI 4.36%) slurry, Air 30/Air 40 0.105 wt %): 25 wt %; Adsorption (wt % Adsorbed) ([4]; 10 wt % fly ash C1, class C (LOI 1.62%) slurry, Air 30/Air 40 0.105 wt %): 25 wt %; Adsorption (wt % Adsorbed) ([4]; 10 wt % fly ash C2 (LOI 3.32%) slurry): 20 wt %; Adsorption (wt % Adsorbed) ([4]; 10 wt % fly ash M1 (LOI […]) slurry, Air 30/Air 40 0.105 wt %): 13 wt %; Adsorption (wt % Adsorbed) ([4]; 10 wt % fly ash M2 (LOI 5.34%) slurry, Air 30/Air 40 0.105 wt %): 23 wt %; Adsorption (wt % Adsorbed) ([4]; 10 wt % fly ash M3 (LOI 11.33%) slurry, Air 30/Air 40 0.105 wt %): 23 wt %; Adsorption (wt % Adsorbed) ([4]; 10 wt % fly ash N (LOI 0.30%) slurry): 16 wt %

Source: patent publication US7892350B2, “Sacrificial agents for fly ash concrete” (Boral Material Technologies Inc., priority 2003, dated 2011)
